Reference: PubChem BioAssay AID2060363 (Molecular Pharmacology Branch, DTP, NCI, 2025)
Values joined by “and” are separate entries in the source; they are usually repeats but may differ in a detail not shown here. Equal entries are not always repeated.

System: 156681-154-R-J1-PDC tumor spheroids, viability % test/control
Experiment: Anticancer human tumor 156681-154-R-J1-PDC patient-derived melanoma cell line growth inhibition [TAK]
Conditions: spheroids with HUVEC and MSC; for viability, T/C: stronger effect = lower value
Outline: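 Drug combinations, each paired with TAK-243 or ipatasertib, were tested on multi-cell spheroids of 60% malignant cells, 25% HUVEC and 15% hMSC. Top concentrations were at or near the clinical Cmax (10 microM if undetermined), decreasing by half-log; viability is given as % test/control.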

[1] = curve of first compound, second compound 0.3 µM
[2] = curve of first compound, second compound 0.949 µM
[3] = curve of first compound, second compound 3 µM
[4] = curve of first compound, second compound 9.49 µM
[5] = curve of first compound, second compound 30 µM
[6] = second compound 0.3 µM, first compound 0.00316 µM
[7] = second compound 0.3 µM, first compound 0.01 µM
[8] = second compound 0.949 µM, first compound 0.00316 µM
[9] = second compound 0.949 µM, first compound 0.01 µM
[10] = second compound 3 µM, first compound 0.00316 µM
[11] = second compound 3 µM, first compound 0.01 µM
[12] = second compound 9.49 µM, first compound 0.00316 µM
[13] = second compound 9.49 µM, first compound 0.01 µM
[14] = second compound 30 µM, first compound 0.00316 µM
[15] = second compound 30 µM, first compound 0.01 µM
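Further: spheroids exposed to compounds for 7 days before the endpoint.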

**Q.** `CC(C)CC(NC(=O)C(Cc1ccccc1)NC(=O)c1cnccn1)B(O)O` (configuration not stated) + CC(C)NCC(C(=O)N1CCN(c2ncnc3c2C(C)CC3O)CC1)c1ccc(Cl)cc1 was tested. Which IC50 [1] did it give?
**A.** 2.09 nM

**Q.** What about the IC50 [2] of the same compound?
**A.** 1.76 nM

**Q.** And the IC50 [3]?
**A.** 1.44 nM

**Q.** And the IC50 [4]?
**A.** < 0.0316 nM

**Q.** And the IC50 [5]?
**A.** < 0.0316 nM

**Q.** What about the viability, T/C (second compound 0.3 µM, first compound 31.6 pM) of the same compound?
**A.** 98.5%

**Q.** What about the viability, T/C (second compound 0.3 µM, first compound 0.0001 µM) of the same compound?
**A.** 97%

**Q.** What about the viability, T/C (second compound 0.3 µM, first compound 0.000316 µM) of the same compound?
**A.** 91.9%

**Q.** And the viability, T/C (second compound 0.3 µM, first compound 0.001 µM)?
**A.** 97.3%

**Q.** What about the viability, T/C [6] of the same compound?
**A.** 23.9%

**Q.** And the viability, T/C [7]?
**A.** 0.32%

**Q.** And the viability, T/C (second compound 0.949 µM, first compound 31.6 pM)?
**A.** 85.2%

**Q.** And the viability, T/C (second compound 0.949 µM, first compound 0.0001 µM)?
**A.** 87.4%

**Q.** What about the viability, T/C (second compound 0.949 µM, first compound 0.000316 µM) of the same compound?
**A.** 91%

**Q.** What about the viability, T/C (second compound 0.949 µM, first compound 0.001 µM) of the same compound?
**A.** 90.1%

**Q.** What about the viability, T/C [8] of the same compound?
**A.** 9.77%

**Q.** And the viability, T/C [9]?
**A.** 0.19%

**Q.** And the viability, T/C (second compound 3 µM, first compound 31.6 pM)?
**A.** 63.9%

**Q.** What about the viability, T/C (second compound 3 µM, first compound 0.0001 µM) of the same compound?
**A.** 67.6%

**Q.** What about the viability, T/C (second compound 3 µM, first compound 0.000316 µM) of the same compound?
**A.** 66%

**Q.** And the viability, T/C (second compound 3 µM, first compound 0.001 µM)?
**A.** 66.7%

**Q.** What about the viability, T/C [10] of the same compound?
**A.** 15.7%

**Q.** And the viability, T/C [11]?
**A.** 0.22%

**Q.** What about the viability, T/C (second compound 9.49 µM, first compound 31.6 pM) of the same compound?
**A.** 40.6%

**Q.** And the viability, T/C (second compound 9.49 µM, first compound 0.0001 µM)?
**A.** 39%

**Q.** And the viability, T/C (second compound 9.49 µM, first compound 0.000316 µM)?
**A.** 37.8%

**Q.** And the viability, T/C (second compound 9.49 µM, first compound 0.001 µM)?
**A.** 37.6%

**Q.** What about the viability, T/C [12] of the same compound?
**A.** 7.12%

**Q.** And the viability, T/C [13]?
**A.** 0.21%

**Q.** And the viability, T/C (second compound 30 µM, first compound 31.6 pM)?
**A.** 17.8%

**Q.** What about the viability, T/C (second compound 30 µM, first compound 0.0001 µM) of the same compound?
**A.** 18.6%

**Q.** And the viability, T/C (second compound 30 µM, first compound 0.000316 µM)?
**A.** 16.9%

**Q.** What about the viability, T/C (second compound 30 µM, first compound 0.001 µM) of the same compound?
**A.** 17.3%

**Q.** And the viability, T/C [14]?
**A.** 1.86%

**Q.** What about the viability, T/C [15] of the same compound?
**A.** 0.31%

**Q.** For `Cc1nc(NC(=O)N2CCCC2C(N)=O)sc1-c1ccnc(C(C)(C)C(F)(F)F)c1` (configuration not stated), which viability, T/C (compound 0.0316 µM) is on record?
**A.** 97.2% and 99.7%

**Q.** And the viability, T/C (compound 0.1 µM)?
**A.** 94.9% and 98.4%

**Q.** And the viability, T/C (compound 0.316 µM)?
**A.** 86.1% and 86.6%

**Q.** What about the viability, T/C (compound 1 µM) of the same compound?
**A.** 86.8% and 74.4%

**Q.** And the viability, T/C (compound 3.16 µM)?
**A.** 67.9% and 64.5%

**Q.** What about the viability, T/C (compound 10 µM) of the same compound?
**A.** 52.8% and 56.2%

**Q.** And the IC50 (curve of compound)?
**A.** > 10000 nM

**Q.** How did the IC50 [1] turn out when `COc1c(OCCCN2CCOCC2)ccc2c3n(c(=NC(=O)c4cnc(N)nc4)nc12)CCN3` + CC(C)NCC(C(=O)N1CCN(c2ncnc3c2C(C)CC3O)CC1)c1ccc(Cl)cc1 was run?
**A.** 65.8 nM

**Q.** And the IC50 [2]?
**A.** 51.2 nM

**Q.** What about the IC50 [3] of the same compound?
**A.** 16.8 nM

**Q.** And the IC50 [4]?
**A.** < 3.16 nM

**Q.** What about the IC50 [5] of the same compound?
**A.** < 3.16 nM

**Q.** And the viability, T/C [6]?
**A.** 94.6%

**Q.** What about the viability, T/C [7] of the same compound?
**A.** 91.4%

**Q.** And the viability, T/C (second compound 0.3 µM, first compound 0.0316 µM)?
**A.** 70.6%

**Q.** And the viability, T/C (second compound 0.3 µM, first compound 0.1 µM)?
**A.** 38.3%

**Q.** And the viability, T/C (second compound 0.3 µM, first compound 0.316 µM)?
**A.** 11.3%

**Q.** And the viability, T/C (second compound 0.3 µM, first compound 1 µM)?
**A.** 2.36%

**Q.** What about the viability, T/C [8] of the same compound?
**A.** 86.7%

**Q.** And the viability, T/C [9]?
**A.** 85.1%

**Q.** And the viability, T/C (second compound 0.949 µM, first compound 0.0316 µM)?
**A.** 61%

**Q.** What about the viability, T/C (second compound 0.949 µM, first compound 0.1 µM) of the same compound?
**A.** 33.3%

**Q.** And the viability, T/C (second compound 0.949 µM, first compound 0.316 µM)?
**A.** 6.84%

**Q.** What about the viability, T/C (second compound 0.949 µM, first compound 1 µM) of the same compound?
**A.** 1.52%

**Q.** What about the viability, T/C [10] of the same compound?
**A.** 67.4%

**Q.** What about the viability, T/C [11] of the same compound?
**A.** 56.6%

**Q.** What about the viability, T/C (second compound 3 µM, first compound 0.0316 µM) of the same compound?
**A.** 40.7%

**Q.** What about the viability, T/C (second compound 3 µM, first compound 0.1 µM) of the same compound?
**A.** 21.7%

**Q.** And the viability, T/C (second compound 3 µM, first compound 0.316 µM)?
**A.** 3.81%

**Q.** What about the viability, T/C (second compound 3 µM, first compound 1 µM) of the same compound?
**A.** 1.29%

**Q.** And the viability, T/C [12]?
**A.** 30.9%

**Q.** What about the viability, T/C [13] of the same compound?
**A.** 35.9%

**Q.** What about the viability, T/C (second compound 9.49 µM, first compound 0.0316 µM) of the same compound?
**A.** 18.5%

**Q.** What about the viability, T/C (second compound 9.49 µM, first compound 0.1 µM) of the same compound?
**A.** 9.13%

**Q.** What about the viability, T/C (second compound 9.49 µM, first compound 0.316 µM) of the same compound?
**A.** 2.36%

**Q.** What about the viability, T/C (second compound 9.49 µM, first compound 1 µM) of the same compound?
**A.** 1.24%

**Q.** And the viability, T/C [14]?
**A.** 13.6%

**Q.** What about the viability, T/C [15] of the same compound?
**A.** 11.5%

**Q.** What about the viability, T/C (second compound 30 µM, first compound 0.0316 µM) of the same compound?
**A.** 6.36%

**Q.** What about the viability, T/C (second compound 30 µM, first compound 0.1 µM) of the same compound?
**A.** 3.28%

**Q.** And the viability, T/C (second compound 30 µM, first compound 0.316 µM)?
**A.** 0.7%

**Q.** What about the viability, T/C (second compound 30 µM, first compound 1 µM) of the same compound?
**A.** 0.29%
